According to patent US10548894B2, “Combination therapy” (Array BioPharma Inc., priority 2013, dated 2020):

Assays:
Assay in all cases: Microscopy imaging assay (viable nuclei count), 72 h
Assay type in all cases: cell-based
[1] = system: A-375 cells expressing truncated p61-BRAFV600E; conditions: Homo sapiens, A-375 p61 BRafV600E, single agent
Experimental: (§1) Compound stocks are prepared in DMSO at a final concentration of 10 mM.
(§2) A-375 and WM-266-4 cells were purchased from American Type Culture Collection (ATCC). The A-375 cells were cultured in DMEM medium (ATCC) and the WM-266-4 cells were cultured in EMEM medium (ATCC) both supplemented with 10% fetal bovine serum (Gibco) and incubated at 37° C./5% CO2. The cell lines engineered to express commonly occurring alleles indicative of resistance were acquired from Novartis-Emeryville. These resistant models include, A-375 cells expressing mutant MEK1P124L, truncated p61-BRAFV600E, or mutant NRASQ61K, and WM-266-4 cells expressing mutant MEK1C121S, truncated p61-BRAFV600E, or mutant NRASQ61K. These cells were cultured in the appropriate parental medium with selection marker G418 and in the presence of 5 uM LFE158 (MEK mutants) or LIH720 (truncated p61-BRAFV600E).
(§3) For screening, cells were seeded in 80 ul of medium in 384-well plates (Thermo Scientific, cat#4332) at 500 (A-375) or 750 (WM-266-4) cell densities per well using a MultiDrop Combi (Thermo-Fisher) with an 8-channel standard cassette. To promote an even distribution of cells across the entire well, cells were briefly centrifuged at 1000 RPM and incubated at room temperature 30 minutes. All plates were incubated at 37° C., 5% CO2 for 24 h prior to compound addition. Compound stock was freshly prepared in the appropriate culture medium, and added using a PAA robot equipped with a 200n1 pin tool. In a minimum of three replicate wells, single agent and combination effects after 72 hours, were assessed by both quantification of cellular ATP levels via Cell Titer Glo (Promega) according to the manufacturer's protocol and by microscopy imaging. […]
(§4) An automated image analysis pipeline was established using custom-made scripts in the open-source, statistical programming language R, and functions of the BioConductor package EBImage. The goal was to quantify the number of viable nuclei (cells) per well as an approximation for cell viability. […]

[2] = system: WM-266-4 cells expressing mutant NRASQ61K; conditions: Homo sapiens, WM-266-4 NRASQ61K, single agent
Experimental: as §1, §2, §3, §4

[3] = system: WM-266-4 cells expressing truncated p61-BRAFV600E; conditions: Homo sapiens, WM-266-4 p61 BRafV600E, single agent
Experimental: as §1, §2, §3, §4

[4] = system: A-375 cells expressing mutant MEK1P124L; conditions: Homo sapiens, A-375 MEK1P124L, single agent
Experimental: (§5) Compound stocks are prepared in DMSO at a final concentration of 10 mM. Working stocks are serially diluted in the appropriate cell culture medium in 3-fold increments to achieve final assay concentrations ranging from 2.7 μM to 1.2 nM.
as §2
(§6) For screening, cells were seeded in 80 ul of medium in 384-well plates (Thermo Scientific, cat#4332) at 500 (A-375) or 750 (WM-266-4) cell densities per well using a MultiDrop Combi (Thermo-Fisher) with an 8-channel standard cassette. To promote an even distribution of cells across the entire well, cells were briefly centrifuged at 1000 RPM and incubated at room temperature 30 minutes. All plates were incubated at 37° C., 5% CO2 for 24 h prior to compound addition. Compound stock was freshly prepared in the appropriate culture medium, and added using a PAA robot equipped with a 200n1 pin tool. In a minimum of three replicate wells, single agent and combination effects after 72 hours, were assessed by both quantification of cellular ATP levels via Cell Titer Glo (Promega) according to the manufacturer's protocol and by microscopy imaging. For imaging, cells were fixed to the plates and permeabilized with a solution of 10% PFA, 0.3% TX-100 in PBS via a WellMate dispenser with controlled dispensing speeds. Cell nuclei were stained with Hoechst 33342 (H3570, Invitrogen), and all necessary washing steps were performed by a BioTek washer.
(§7) An automated image analysis pipeline was established using custom-made scripts in the open-source, statistical programming language R, and functions of the BioConductor package EBImage. The goal was to quantify the number of viable nuclei (cells) per well as an approximation for cell viability. The pipeline was comprised of seven steps: (I.) smoothing of the image to reduce the number of intensity peaks, (II.) application of a thresholding function to separate the foreground (signal) from the background (noise), (III.) identification of local maxima in the foreground that serve as seeds for the nuclei, (IV.) filtering of local maxima in close proximity, (V.) propagation of the nuclei from remaining local maxima, (VI.) and extraction of object features from the propagated nuclei (numbers of nuclei, size features and intensity features). As a last step (VII.), to exclude debris (e.g. fragmented nuclei) from counting, objects identified in DMSO- and Staurosporin-treated wells were used to obtain feature distributions for viable and fragmented nuclei, respectively. These were used to set cut-offs differentiating between viable and fragmented nuclei. The number of fragmented nuclei was subtracted from the total number of identified objects and the result was reported as final count for that well.
(§8) Data comprised triplicate measurements for each treatment (compound) condition, 42 replicates of DMSO-treated wells, and duplicates of Staurosporin-treated wells. The data was normalized to the median of the DMSO measurements and summarized by calculating the median of the triplicates. Data was imported into Chalice to calculate compound synergies.

[5] = system: A-375 cells expressing mutant NRASQ61K; conditions: Homo sapiens, A-375 NRASQ61K, single agent
Experimental: as §5, §2, §6, §7, §8

A-375 cells = conditions: Homo sapiens, A-375 parent, single agent
Experimental: as §5, §2, §6, §7, §8

[6] = system: WM-266-4 cells expressing mutant MEK1C121S; conditions: Homo sapiens, WM-266-4 MEK1C121S, single agent
Experimental: as §5, §2, §6, §7, §8

WM-266-4 cells = conditions: Homo sapiens, WM-266-4 parent, single agent
Experimental: as §5, §2, §6, §7, §8

With `COC(=O)N[C@@H](C)CNc1nccc(-c2cn(C(C)C)nc2-c2cc(Cl)cc(NS(C)(=O)=O)c2F)n1` [Compound of Formula (I)] the IC50 [1] was 849 nM, the IC50 [2] was 868 nM and the IC50 [3] was 933 nM. The IC50 [4] was 300 nM, the IC50 [5] was 133 nM and the IC50 (A-375 cells) was 4 nM. The IC50 [6] was 58 nM and the IC50 (WM-266-4 cells) was 3 nM.
